# Laboratory results from patent US9617330B2, “Chemorepulsion of cells” (Celtaxsys, Inc., priority 2006, dated 2017).
# Where two headings read alike, the source gives them in different places.
# B1: Cathespin G, Human Neutrophil: Cathespin G, Human Neutrophil (protein, UniProt P08311 21-244, looked up)
# Cathepsin G: IIGGRESRPHSRPYMAYLQIQSPAGQSRCGGFLVREDFVLTAAHCWGSNINVTLGAHNIQRRENTQQHITARRAIRHPQYNQRTIQNDIMLLQLSRRVRRNRNVNPVALPRAQEGLRPGTLCTVAGWGRVSMRRGTDTLREVQLRVQRDRQCLRIFGSYDPRRQICVGDRRERKAAFKGDSGGPLLCNNVAHGIVSYGKSSGVPPEVFTRVSSFLPWIRTTMRS
# B2: MIP-1 beta: chemokine (protein, UniProt P13236 24-92, looked up)
# C-C motif chemokine 4: APMGSDPPTACCFSYTARKLPRNFVVDYYETSSLCSQPAVVFQTKRSKQVCADPSESWVQEYVYDLELN
# B3: RANTES: chemokine (protein, UniProt P13501 24-91, looked up)
# C-C motif chemokine 5: SPYSSDTTPCCFAYIARPLPRAHIKEYFYTSGKCSNPAVVFVTRKNRQVCANPEKKWVREYINSLEMS
# B4: SLC: chemokine (protein, UniProt O00585 24-134, looked up)
# C-C motif chemokine 21: SDGGAQDCCLKYSQRKIPAKVVRSYRKQEPSLGCSIPAILFLPRKRSQAELCADPKELWVQQLMQHLDKTPSPQKPAQGCRKDRGASKTGKKGKGSKGCKRTERSQTPKGP
# B5: Eotaxin-2: chemokine (protein, UniProt O00175 27-119, looked up)
# C-C motif chemokine 24: VVIPSPCCMFFVSKRIPENRVVSYQLSSRSTCLKAGVIFTTKKGQQFCGDPKQEWVQRYMKNLDAKQKKASPRARAVAVKGPVQRYPGNQTTC
# B6: Eotaxin-3: chemokine (protein, UniProt Q9Y258 24-94, looked up)
# C-C motif chemokine 26: TRGSDISKTCCFQYSHKPLPWTWVRSYEFTSNSCSQRAVIFTTKRGKKVCTHPRKKWVQKYISLLKTPKQL
# B7: Fractalkine: chemokine (protein, UniProt P78423 25-397, looked up)
# Fractalkine: QHHGVTKCNITCSKMTSKIPVALLIHYQQNQASCGKRAIILETRQHRLFCADPKEQWVKDAMQHLDRQAAALTRNGGTFEKQIGEVKPRTTPAAGGMDESVVLEPEATGESSSLEPTPSSQEAQRALGTSPELPTGVTGSSGTRLPPTPKAQDGGPVGTELFRVPPVSTAATWQSSAPHQPGPSLWAEAKTSEAPSTQDPSTQASTASSPAPEENAPSEGQRVWGQGQSPRPENSLEREEMGPVPAHTDAFQDWGPGSMAHVSVVPVSSEGTPSREPVASGSWTPKAEEPIHATMDPQRLGVLITPVPDAQAATRRQAVGLLAFLGLLFCLGVAMFTYQSLQGCPRKMAGEMAEGLRYIPRSCGSNSYVLVPV
# B8: HCC-1: chemokine (protein, UniProt Q16627 20-93, looked up)
# C-C motif chemokine 14: TKTESSSRGPYHPSECCFTYTTYKIPRQRIMDYYETNSQCSKPGIVFITKRGHSVCTNPSDKWVQDYIKDMKEN
# B9: Leukotactin-1: chemokine (protein, UniProt Q16663 22-113, looked up)
# C-C motif chemokine 15: QFTNDAETELMMSKLPLENPVVLNSFHFAADCCTSYISQSIPCSLMKSYFETSSECSKPGVIFLTKKGRQVCAKPSGPGVQDCMKKLKPYSI
# B10: TARC: chemokine (protein, UniProt Q92583 24-94, looked up)
# C-C motif chemokine 17: ARGTNVGRECCLEYFKGAIPLRKLKTWYQTSEDCSRDAIVFVTVQGRAICSDPNNKRVKNAVKYLQSLERS
# B11: MDC: chemokine (protein, UniProt O00626 25-93, looked up)
# C-C motif chemokine 22: GPYGANMEDSVCCRDYVRYRLPLRVVKHFYWTSDSCPRPGVVLLTFRDKEICADPRVPWVKMILNKLSQ
# B12: HSP32 Rat: heat shock protein; accession P06762/AAH91164 (protein, UniProt P06762 1-289, looked up)
# Heme oxygenase 1: MERPQLDSMSQDLSEALKEATKEVHIRAENSEFMRNFQKGQVSREGFKLVMASLYHIYTALEEEIERNKQNPVYAPLYFPEELHRRAALEQDMAFWYGPHWQEAIPYTPATQHYVKRLHEVGGTHPELLVAHAYTRYLGDLSGGQVLKKIAQKAMALPSSGEGLAFFTFPSIDNPTKFKQLYRARMNTLEMTPEVKHRVTEEAKTAFLLNIELFEELQALLTEEHKDQSPSQTEFLRQRPASLVQDTTSAETPRGKSQISTSSSQTPLLRWVLTLSFLLATVAVGIYAM
# Columns and labels:
# B-cell = assay: Trans-well migration assay (Example 1), net migratory response; conditions: net observed response
# Experimental: Prior to beginning the assay 0.5% Fetal Calf Serum (FCS) in Iscove's Modified Dulbecco's Medium (IMDM) is prepared and stored on ice (Assay Medium). Migratory cells at a concentration of 2×10^7 cells/ml are suspended in Assay Medium. T-cells isolated from donor blood or buffy coats are allowed to rest overnight in Assay Medium at 37° C. in 5% CO2. Neutrophils, monocytes and B cells are utilized as soon as they are purified from donor blood or other source of human origin. Four serial (10×) dilutions of the ligand are then prepared in Assay Medium (normally 10 μg/ml to 0.01 μg/ml).
# Plates are removed from the packaging, leaving the membrane behind and intact. The membrane is set aside. Into each well is pipetted 31 μl of solution. For media controls and fugetaxis (chemorepellent) samples, Assay Medium is used. For chemoattraction samples, the appropriate dilution of agent in assay medium is used.
# Using a sterile needle, all small bubbles present in each well are popped and the membrane is carefully placed onto the plate, starting at one side and slowly lowering the other edge onto the plate.
# Then 29 μl is pipetted into each circle imprinted on the polycarbonate or polyester membrane. For media controls and chemoattraction samples, Assay Medium is used. For fugetaxis (chemorepellent) samples, the appropriate dilution of ligand in assay medium is used.
# To each 29 uL aliquot above is added 2 μl of cells (40,000 cells). It is important to ensure that before beginning the cells are well suspended and that they are mixed. This mixing can be accomplished by agitating the tube between each addition.
# The plate is then covered with the supplied lid and incubated 1-3 hours in a humidified incubator at 37° C. in 5% CO2. Following the incubation period, the liquid from the top of the plate is removed with a tissue or similar blotting material (e.g. a Kimwipe). The membrane is carefully removed from the top of the plate and discarded. […] Using a multichannel pipettor, each well of the microplate is rinsed with 25 μl Phosphate Buffered Saline (Mediatech #21-040-CV) and transferred to the same wells in the white microplate. Using a multichannel pipettor, 50 μl CellTiter-Glo Luminescent Cell Viability Assay (Promega #G7572) is added to each well and mixed.
# The plate is read using the Perkin Elmer Victor^3V plate reader using the Large Aperture Luminescence setting at 8 mm height above the plate with a dwell time of 1 s to quantify the number of migrated cells.
# The results reported reflect the net observed migratory response of the cells to the ligand and are not based on the definition of unimodal fugetaxins.
# Neutrophils = assay: High throughput transmigration assay (Example 9), chemorepulsion; assay type: cell-based, human
# Monocyte = assay: Trans-well migration assay (Example 1), net migratory response
# [1] = system: Eo-HL60 (HL-60 clone 15 differentiated to eosinophil-like phenotype); assay: as above; assay type: cell-based, human; conditions: net observed response
# [2] = Neutrophils, mean of three donors at concentration of highest activity, range 0.00125-1.25 μM
# [3] = neutrophils, 0.00125 μM, one donor, triplicate, ± SD
# [4] = neutrophils, 0.0125 μM, one donor, triplicate, ± SD
# [5] = neutrophils, 0.125 μM, one donor, triplicate, ± SD
# [6] = neutrophils, 1.25 μM, one donor, triplicate, ± SD
# [7] = Monocyte, net observed response
Molecule,Migratory Response (B-cell),Migratory Response [1],Migratory Response (Monocyte; [7]),other results
"COc1cc(CNC(=O)CCCC/C=C/C(C)C)ccc1O [Capsaicin, reference compound]",chemorepulsion,,,
"CC[C@H]1OC(=O)[C@H](C)[C@@H](O[C@H]2C[C@@](C)(OC)[C@@H](O)[C@H](C)O2)[C@H](C)[C@@H](O[C@@H]2O[C@H](C)C[C@H](N(C)C)[C@H]2O)[C@](C)(O)C[C@@H](C)C(=O)[C@H](C)[C@@H](O)[C@]1(C)O [Erythromycin, reference compound]",,,,Repellent Index (Neutrophils; [2]): 4.8; Repellent Index (Neutrophils; [3]): 1.75 ± 0.40; Repellent Index (Neutrophils; [4]): 2.29 ± 1.61; Repellent Index (Neutrophils; [5]): 3.29 ± 1.11; Repellent Index (Neutrophils; [6]): 6.12 ± 2.53
"O=c1c(-c2ccc(O)cc2)coc2cc(O)cc(O)c12 [Genistein, reference compound]",chemorepulsion,,,Repellent Index (Neutrophils; [2]): 1.3
"CC(C)=CCC[C@]1(C)[C@@H](CC=C(C)C)C[C@@]2(CC=C(C)C)C(=O)[C@]1(C(=O)C(C)C)C(=O)C(CC=C(C)C)=C2O [Hyperforin, reference compound]",,,,Migratory Response (Monocyte): chemorepulsion
"CC(=O)O[C@H]1C(=O)[C@@]2(C)[C@H]([C@H](OC(=O)c3ccccc3)[C@]3(O)C[C@H](OC(=O)[C@H](O)[C@@H](NC(=O)c4ccccc4)c4ccccc4)C(C)=C1C3(C)C)[C@]1(OC(C)=O)CO[C@@H]1C[C@@H]2O [Paclitaxel, reference compound]",,chemorepulsion,chemorepulsion,
"O.O.O=c1c(O)c(-c2ccc(O)c(O)c2)oc2cc(O)cc(O)c12 [Quercetin dihydrate, reference compound]",chemorepulsion,chemorepulsion,,
"Oc1ccc(C=Cc2cc(O)cc(O)c2)cc1 [Resveratrol, reference compound]",chemorepulsion,chemorepulsion,,Repellent Index (Neutrophils; [2]): 1.4; Repellent Index (Neutrophils; [3]): 2.65 ± 0.29; Repellent Index (Neutrophils; [4]): 2.80 ± 0.32; Repellent Index (Neutrophils; [5]): 2.05 ± 0.28; Repellent Index (Neutrophils; [6]): 1.32 ± 0.50
"(−)-Epigallocatechin Gallate [EGCG ((−)-Epigallocatechin Gallate), reference compound]",chemorepulsion,,,
Antithrombin III,,,,"Repellent Index (Neutrophils; Neutrophils, mean of three donors at concentration of highest activity, range 0.000573-0.573 μM): 2.2; Repellent Index (Neutrophils; neutrophils, 0.000573 μM, one donor, triplicate, ± SD): 1.08 ± 0.36; Repellent Index (Neutrophils; neutrophils, 0.00573 μM, one donor, triplicate, ± SD): 1.63 ± 0.67; Repellent Index (Neutrophils; neutrophils, 0.0573 μM, one donor, triplicate, ± SD): 3.17 ± 0.98; Repellent Index (Neutrophils; neutrophils, 0.573 μM, one donor, triplicate, ± SD): 5.55 ± 1.71"
CXCL2: chemokine,,,,Repellent Index (Neutrophils; [2]): 1.6
Concanavalin A,chemorepulsion,,chemorepulsion,
Eotaxin: chemokine,chemorepulsion,,,
"Galectin-1: carbohydrate binding protein (galectin), full-length, purchased; accession P09382",,chemorepulsion,chemorepulsion,Repellent Index (Neutrophils; [2]): 2.3; Repellent Index (Neutrophils; [3]): 0.80 ± 0.08; Repellent Index (Neutrophils; [4]): 0.96 ± 0.22; Repellent Index (Neutrophils; [5]): 1.05 ± 0.14; Repellent Index (Neutrophils; [6]): 3.70 ± 0.29
"Galectin-7: full-length galectin protein, purchased",chemorepulsion,,,
HSP40 Human: heat shock protein; accession BAA08495,,chemorepulsion,chemorepulsion,Repellent Index (Neutrophils; [2]): 1.4
Lipid A Diphos [reference compound],,chemorepulsion,,

Molecule,Migratory Response (B-cell),Migratory Response [1],Migratory Response (Monocyte; [7]),other results
MCP-4: chemokine,chemorepulsion,,chemorepulsion,
N-acetylmuramyl (MDP) [reference compound],,chemorepulsion,,Migratory Response (Monocyte): chemorepulsion
Poly(I:C) [reference compound],chemorepulsion,chemorepulsion,chemorepulsion,"Repellent Index (Neutrophils; Neutrophils, mean of three donors at concentration of highest activity, range 0.01-10 μg/ml): 1.4"
Tropomyosin,,,,Repellent Index (Neutrophils; [2]): 1.7; Repellent Index (Neutrophils; [3]): 2.57 ± 0.73; Repellent Index (Neutrophils; [4]): 2.26 ± 0.86; Repellent Index (Neutrophils; [5]): 2.23 ± 0.68; Repellent Index (Neutrophils; [6]): 1.67 ± 0.16
B1,chemorepulsion,chemorepulsion,chemorepulsion,
B2,chemorepulsion,,chemorepulsion,
B3,chemorepulsion,,chemorepulsion,
B4,,,chemorepulsion,
B5,chemorepulsion,,chemorepulsion,
B6,chemorepulsion,,chemorepulsion,
B7,chemorepulsion,,chemorepulsion,
B8,chemorepulsion,,,
B9,chemorepulsion,,,
B10,chemorepulsion,,,
B11,chemorepulsion,,,
B12,,chemorepulsion,,Repellent Index (Neutrophils; [2]): 1.8
